Assay [1] has as its target T1, Streptokinase A (Streptococcus pyogenes serotype M1, UniProt P10520).
T1 sequence (P10520 whole entry): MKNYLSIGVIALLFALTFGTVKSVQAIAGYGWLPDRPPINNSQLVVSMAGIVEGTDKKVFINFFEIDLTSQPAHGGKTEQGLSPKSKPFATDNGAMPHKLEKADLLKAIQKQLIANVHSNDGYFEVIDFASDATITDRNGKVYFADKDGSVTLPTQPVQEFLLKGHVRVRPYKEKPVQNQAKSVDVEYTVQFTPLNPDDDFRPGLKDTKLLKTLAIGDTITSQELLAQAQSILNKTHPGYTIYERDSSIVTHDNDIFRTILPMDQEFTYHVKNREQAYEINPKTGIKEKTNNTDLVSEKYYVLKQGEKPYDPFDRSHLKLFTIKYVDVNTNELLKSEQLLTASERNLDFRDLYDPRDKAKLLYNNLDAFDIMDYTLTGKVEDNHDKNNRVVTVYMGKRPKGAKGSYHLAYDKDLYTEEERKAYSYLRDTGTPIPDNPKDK
Description: Absorbance Microorganism-Based Dose Response Follow up to Identify Inhibitors of Streptokinase Expression. [Related pubchem assays: 1677 (Project Summary), 1915, 1914, 1902 (Retest at Dose), 1900 (Counter Screen), 1662 (Primary HTS)]. It counts as functional, Streptococcus pyogenes M1 GAS. A general note: Counterscreens check selectivity or assay interference.

Assay [2] relates to Streptococcus. In words: Streptococcus pyogenes growth inhibition counter-screen, dose response, counter-screen for streptokinase expression inhibitor project, luminescence, BacTiter-Glo, strain UMAA2166 (AID 2477). It counts as functional, organism-based.
A short description of assay [3]: C. albicans growth with fluconazole, confirmation, fluorescence, retest (AID 2467). The assay is classed as functional, cell-based.
For assay [4], the target named is T2, Mannose-6-phosphate isomerase (Homo sapiens, UniProt P34949).
T2 sequence (P34949 whole entry): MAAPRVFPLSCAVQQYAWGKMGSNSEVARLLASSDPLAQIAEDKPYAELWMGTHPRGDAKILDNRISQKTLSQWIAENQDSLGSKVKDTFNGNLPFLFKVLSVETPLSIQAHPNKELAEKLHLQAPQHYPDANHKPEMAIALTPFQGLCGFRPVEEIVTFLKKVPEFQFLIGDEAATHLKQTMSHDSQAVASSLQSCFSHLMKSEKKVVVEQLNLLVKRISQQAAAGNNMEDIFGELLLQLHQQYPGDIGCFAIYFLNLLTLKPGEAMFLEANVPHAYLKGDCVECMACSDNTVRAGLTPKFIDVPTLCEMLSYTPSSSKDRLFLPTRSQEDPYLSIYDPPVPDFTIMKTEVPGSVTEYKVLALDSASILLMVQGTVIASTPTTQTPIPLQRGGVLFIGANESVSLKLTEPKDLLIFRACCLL
Description: human PMI inhibitors, high substrate, primary screen, biochemical, fluorescence intensity, high mannose 6-phosphate (AID 1220).

In assay [5] the test system is INS1. In words: beta cell apoptosis inhibitors, cytokine rescue, dose response, luminescence, retest (AID 449756).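 Further: cell death triggered by IL-1 beta plus TNF-alpha plus IFN-gamma mixture; protective hits raise ATP signal compared with cytokine alone wells.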 It counts as functional, cell-based. The settings on record: Rattus norvegicus.
Assay [6] in a line: cytotoxicity toward NIH3T3 fibroblasts, dose response, counter-screen, cell-based, ATP luminescence, mouse fibroblasts (AID 2010).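 Further: cells exposed to compound for about 90 hours before reading.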 It counts as functional.
Assay [7] concerns the target Nonstructural protein 1 (Influenza A virus, UniProt Q194T2). It counts as functional, Influenza A virus (A/California/07/2009(H1N1)).
Assay [8] in a line: inhibitors of intracellular T. cruzi replication, confirmation, NIH3T3 host cells, beta-gal luminescence (AID 2044).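 Further: intracellular parasites grown in NIH/3T3 mouse fibroblasts as host cells; luminescent beta-galactosidase reporter signal from transgenic T. cruzi replicating inside host cells; inhibitors lower the luminescence signal.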 It counts as functional, cell-based.
The nature of assay [9]: NIH-3T3 fibroblast cytotoxicity, dose response, cytotoxicity control, cell-based, fluorescence, Alamar Blue, secondary assay (AID 2327).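 Further: NIH-3T3 mouse fibroblasts cultured with fluconazole at 8 µg/mL.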 The assay is classed as functional. For orientation: Alamar Blue is a resazurin reagent that responds to reducing activity.
For assay [10], the target named is T3, Insulin-degrading enzyme (Homo sapiens, UniProt P14735).
T3 sequence (P14735 whole entry): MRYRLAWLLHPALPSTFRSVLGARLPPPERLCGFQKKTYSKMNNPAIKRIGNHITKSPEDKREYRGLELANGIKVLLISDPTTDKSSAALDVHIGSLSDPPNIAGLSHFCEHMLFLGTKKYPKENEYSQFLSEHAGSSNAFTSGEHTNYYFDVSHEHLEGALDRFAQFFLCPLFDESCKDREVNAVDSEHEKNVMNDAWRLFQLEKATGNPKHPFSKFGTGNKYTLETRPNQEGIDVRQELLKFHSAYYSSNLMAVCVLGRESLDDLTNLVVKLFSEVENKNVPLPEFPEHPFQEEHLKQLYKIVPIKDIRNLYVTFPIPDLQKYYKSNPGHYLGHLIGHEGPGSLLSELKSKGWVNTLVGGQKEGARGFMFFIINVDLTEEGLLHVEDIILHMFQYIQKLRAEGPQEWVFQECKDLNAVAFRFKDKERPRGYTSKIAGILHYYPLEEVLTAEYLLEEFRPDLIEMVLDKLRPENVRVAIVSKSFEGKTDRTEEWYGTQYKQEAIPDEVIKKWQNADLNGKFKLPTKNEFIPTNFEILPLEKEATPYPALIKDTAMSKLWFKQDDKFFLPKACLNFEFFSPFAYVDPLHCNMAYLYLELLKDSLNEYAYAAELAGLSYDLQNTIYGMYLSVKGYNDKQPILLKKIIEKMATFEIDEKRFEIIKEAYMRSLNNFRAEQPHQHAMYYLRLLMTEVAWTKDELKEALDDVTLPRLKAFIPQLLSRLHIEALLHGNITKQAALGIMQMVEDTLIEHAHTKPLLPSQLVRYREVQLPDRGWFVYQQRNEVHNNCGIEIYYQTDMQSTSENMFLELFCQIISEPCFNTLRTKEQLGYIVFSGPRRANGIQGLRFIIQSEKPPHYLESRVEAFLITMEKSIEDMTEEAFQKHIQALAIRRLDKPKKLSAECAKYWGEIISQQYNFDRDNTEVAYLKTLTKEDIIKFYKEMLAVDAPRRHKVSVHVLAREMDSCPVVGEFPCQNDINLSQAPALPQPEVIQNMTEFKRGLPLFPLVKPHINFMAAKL
Description: Dose Response: Fluorescence polarization-based cell-based high throughput dose response assay for inhibitors of insulin-degrading enzyme (IDE). [Related pubchem assays: 434962 (Primary screen (IDE inhibitors in singlicate)), 449730 (Counterscreen (Cytotoxicity in triplicate)), 435028 (Confirmation (IDE inhibitors in triplicate)), 434984 (Summary …. It counts as functional. (In fluorescence polarisation assays a small probe gives low polarisation when free and higher when bound to something large.)

Assay [11] in a line: Counterscreen for IDE inhibitors: Luminescence-based cell-based high throughput dose response assay to identify compounds that are cytotoxic to HEK cells. [Related pubchem assays: 434962 (Primary screen (IDE inhibitors in singlicate)), 449730 (Counterscreen (Cytotoxicity in triplicate)), 435028 (Confirmation (IDE inhibitors in triplicate)) …. It counts as functional. The settings on record: HEK293.

Assay [12] is described as follows: cytotoxicity in HPDE-C7 cells, cell-based, fluorescence, HTS (AID 430). The assay is classed as functional. The settings on record: Homo sapiens.
Assay [13] is described as follows: cytotoxicity in KRAS-transformed pancreatic duct cells, primary screen, cell-based, fluorescence, HTS (AID 431).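 Further: cell line used: HPDE-C7K.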 It counts as functional. Particulars: Homo sapiens.
Assay [14] deals with T4, Voltage-gated N-type calcium channel alpha-1B subunit/Amyloid beta A4 precursor protein-binding family A member 1 (Homo sapiens, UniProt Q00975+Q02410). In words: disruptors of Mint-PDZ/N-type channel peptide interaction – biochemical, HTRF, SAR follow-up (AID 2489). It counts as functional.
T4 sequence (Q00975 whole entry): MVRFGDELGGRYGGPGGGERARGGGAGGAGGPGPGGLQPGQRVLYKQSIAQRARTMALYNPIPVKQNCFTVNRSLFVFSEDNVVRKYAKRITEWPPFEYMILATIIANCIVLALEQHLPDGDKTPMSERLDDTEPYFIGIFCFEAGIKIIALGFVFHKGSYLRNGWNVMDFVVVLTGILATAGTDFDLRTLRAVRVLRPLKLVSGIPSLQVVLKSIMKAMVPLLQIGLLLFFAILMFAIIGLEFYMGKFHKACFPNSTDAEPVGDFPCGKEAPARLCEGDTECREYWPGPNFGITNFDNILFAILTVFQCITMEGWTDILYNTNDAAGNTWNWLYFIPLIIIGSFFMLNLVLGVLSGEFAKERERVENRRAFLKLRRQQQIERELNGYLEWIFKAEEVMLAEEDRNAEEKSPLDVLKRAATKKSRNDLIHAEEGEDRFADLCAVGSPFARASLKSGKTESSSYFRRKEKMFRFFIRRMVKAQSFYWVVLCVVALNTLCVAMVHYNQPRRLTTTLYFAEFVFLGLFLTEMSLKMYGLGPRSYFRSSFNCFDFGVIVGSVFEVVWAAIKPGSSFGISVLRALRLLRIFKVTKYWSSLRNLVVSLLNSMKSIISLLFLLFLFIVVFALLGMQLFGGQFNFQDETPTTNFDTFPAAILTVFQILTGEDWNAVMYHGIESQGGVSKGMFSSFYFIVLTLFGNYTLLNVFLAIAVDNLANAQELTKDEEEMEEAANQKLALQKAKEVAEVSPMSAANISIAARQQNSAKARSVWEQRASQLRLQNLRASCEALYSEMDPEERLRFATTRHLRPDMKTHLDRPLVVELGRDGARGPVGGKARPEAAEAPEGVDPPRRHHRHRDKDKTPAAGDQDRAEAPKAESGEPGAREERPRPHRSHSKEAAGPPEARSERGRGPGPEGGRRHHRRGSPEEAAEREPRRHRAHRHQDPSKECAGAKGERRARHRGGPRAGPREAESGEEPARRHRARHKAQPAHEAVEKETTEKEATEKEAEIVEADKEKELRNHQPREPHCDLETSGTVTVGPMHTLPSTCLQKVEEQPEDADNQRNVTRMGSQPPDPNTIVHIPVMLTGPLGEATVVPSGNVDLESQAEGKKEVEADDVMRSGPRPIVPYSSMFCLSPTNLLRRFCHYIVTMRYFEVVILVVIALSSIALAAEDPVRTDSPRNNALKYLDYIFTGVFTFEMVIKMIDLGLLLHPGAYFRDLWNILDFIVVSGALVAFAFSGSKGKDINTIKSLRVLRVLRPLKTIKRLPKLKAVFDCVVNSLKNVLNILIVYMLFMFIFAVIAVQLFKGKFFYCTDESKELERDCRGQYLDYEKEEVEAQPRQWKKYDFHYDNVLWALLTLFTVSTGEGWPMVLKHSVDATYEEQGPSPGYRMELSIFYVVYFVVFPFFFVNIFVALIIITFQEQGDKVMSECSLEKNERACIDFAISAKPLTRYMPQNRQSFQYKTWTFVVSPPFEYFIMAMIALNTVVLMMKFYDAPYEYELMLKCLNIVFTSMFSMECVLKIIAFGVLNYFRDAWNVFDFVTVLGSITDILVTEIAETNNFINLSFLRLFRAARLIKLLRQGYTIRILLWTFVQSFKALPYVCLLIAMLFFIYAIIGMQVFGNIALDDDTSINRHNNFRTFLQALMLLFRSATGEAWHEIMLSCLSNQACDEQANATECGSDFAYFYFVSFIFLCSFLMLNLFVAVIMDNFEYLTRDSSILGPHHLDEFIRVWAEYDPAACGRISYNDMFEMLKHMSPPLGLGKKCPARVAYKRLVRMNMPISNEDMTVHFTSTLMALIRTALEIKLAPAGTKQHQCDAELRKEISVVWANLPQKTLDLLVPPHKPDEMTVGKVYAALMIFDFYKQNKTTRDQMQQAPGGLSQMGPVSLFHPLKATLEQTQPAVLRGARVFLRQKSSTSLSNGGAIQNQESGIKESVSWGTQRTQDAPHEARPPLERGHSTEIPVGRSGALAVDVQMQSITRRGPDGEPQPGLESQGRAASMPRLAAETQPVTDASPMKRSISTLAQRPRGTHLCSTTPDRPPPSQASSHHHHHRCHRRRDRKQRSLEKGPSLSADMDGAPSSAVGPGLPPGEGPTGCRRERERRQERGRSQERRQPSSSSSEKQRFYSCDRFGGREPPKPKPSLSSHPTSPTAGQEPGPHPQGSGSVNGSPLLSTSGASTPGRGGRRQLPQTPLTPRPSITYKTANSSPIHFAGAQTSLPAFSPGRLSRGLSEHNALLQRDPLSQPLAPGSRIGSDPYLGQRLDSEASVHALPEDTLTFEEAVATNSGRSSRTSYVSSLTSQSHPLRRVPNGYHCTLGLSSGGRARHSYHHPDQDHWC
T4 sequence (Q02410 whole entry): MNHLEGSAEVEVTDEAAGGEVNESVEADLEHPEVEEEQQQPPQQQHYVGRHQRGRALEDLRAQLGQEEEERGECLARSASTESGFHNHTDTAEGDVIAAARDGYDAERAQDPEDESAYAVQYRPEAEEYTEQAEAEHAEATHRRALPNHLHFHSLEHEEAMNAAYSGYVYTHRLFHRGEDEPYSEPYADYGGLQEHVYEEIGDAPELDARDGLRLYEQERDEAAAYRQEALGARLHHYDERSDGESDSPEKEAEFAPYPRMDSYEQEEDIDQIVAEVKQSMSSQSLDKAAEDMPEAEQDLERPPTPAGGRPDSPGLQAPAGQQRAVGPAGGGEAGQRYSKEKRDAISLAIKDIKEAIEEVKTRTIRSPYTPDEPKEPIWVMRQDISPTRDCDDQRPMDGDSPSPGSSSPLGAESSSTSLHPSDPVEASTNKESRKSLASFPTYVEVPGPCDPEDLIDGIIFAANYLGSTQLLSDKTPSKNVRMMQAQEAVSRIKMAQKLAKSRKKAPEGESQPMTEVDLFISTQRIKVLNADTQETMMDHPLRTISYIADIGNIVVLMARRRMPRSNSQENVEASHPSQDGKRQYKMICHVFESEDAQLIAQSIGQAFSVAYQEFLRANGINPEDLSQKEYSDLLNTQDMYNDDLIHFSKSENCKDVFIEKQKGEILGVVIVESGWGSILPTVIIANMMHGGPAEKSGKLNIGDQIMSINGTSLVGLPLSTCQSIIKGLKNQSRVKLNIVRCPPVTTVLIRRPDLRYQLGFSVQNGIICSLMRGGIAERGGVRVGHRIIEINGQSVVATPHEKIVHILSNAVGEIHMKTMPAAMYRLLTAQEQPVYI
The target of assay [15] is T4, Voltage-gated N-type calcium channel alpha-1B subunit/Amyloid beta A4 precursor protein-binding family A member 1. In words: disruptors of Mint-PDZ/N-type channel peptide interaction – biochemical, HTRF, set 2, SAR follow-up (AID 434980). The assay is classed as functional.
The target of assay [16] is Prothrombin (Homo sapiens, UniProt P00734). In words: Thrombin 1536 HTS Dose Response Confirmation. [Related pubchem assays: 1046 (Thrombin 1536 HTS; hits were confirmed in this assay)]. It counts as functional.
Assay [17] has as its target Voltage-dependent T-type calcium channel subunit alpha-1H (Homo sapiens, UniProt O95180). It counts as functional.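 Further: channel activity triggered by adding a high calcium stimulation buffer.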
Assay [18] in a line: Luminescence Cell-Based Dose Retest to Confirm Inhibitors of Cancer Stem Cells. [Related pubchem assays (depositor defined):AID2717, AID2721]. It counts as functional. Particulars: Homo sapiens.

Where a name gives a salt, the structure may show the parent alone. The source made the active and inactive calls.

The EC50 is the concentration that produces a half-maximal response. For orientation: IC50 means the concentration that inhibits the measured activity by half. A word on the AC50: it is the concentration giving half of the maximal activity seen.

Sequence of Nonstructural protein 1 (Q194T2 whole entry): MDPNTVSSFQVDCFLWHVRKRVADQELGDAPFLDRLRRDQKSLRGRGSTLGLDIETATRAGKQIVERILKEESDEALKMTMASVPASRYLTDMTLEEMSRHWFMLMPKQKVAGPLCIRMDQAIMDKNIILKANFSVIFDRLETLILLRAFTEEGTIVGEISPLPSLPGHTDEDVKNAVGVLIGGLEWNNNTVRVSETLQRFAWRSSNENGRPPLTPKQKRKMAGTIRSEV

As for `COc1nc(-c2ccccc2)nc2ccccc12`, the EC50 is 75.4 µM (active) in assay [1] and > 500 µM (not active) in assay [2].

As to `CCOC(=O)C1CCN(Cc2ccc(O)c3ncccc23)CC1`, the EC50 in assay [3] was > 38 µM (not active); in assay [6], > 60 µM (not active); in assay [8] it was 3.26 µM (active); in assay [9], 22.2 µM (active). In addition, the IC50 is > 50 µM (not active) in assay [4] and 5.25 µM (active) in assay [7]. Further, the concentration at half-maximal activity (AC50) in [5] was 3.76 µM (active).

Regarding `Cc1ccc(Nc2cnn(C34CC5CC(CC(CC(=O)O)(C5)C3)C4)c(=O)c2Cl)cc1C`, the IC50 in assay [10] is given as 18.8 µM (not active); in assay [11] it was > 55.7 µM (not active).

In the case of `Cc1ccc(/C=C/C2=Cc3c(sc(NC(=O)CSc4n[nH]c(N)n4)c3C#N)C(C)(C)C2)o1`, the EC50 was 7.52 µM (active) in [12] and 7.17 µM (active) in assay [13].

For the compound `CC(=O)Oc1ccc(N2C(=O)C3C4C=CC(CC4)C3C2=O)cc1` (stereo not given), the IC50 in assay [14] and in [15] was > 56.8 µM (inactive) in each case.

Regarding `Cc1cccc(C)c1NC(=S)N/N=C/c1c(Cl)cccc1Cl`, in assay [16], the 50% inhibitory concentration (IC50) was > 50 µM (not active).

Consider `Fc1ccc(C(c2ccc(F)cc2)N2CCN(C/C=C/c3ccccc3)CC2)cc1` [FLUNARIZINE DIHYDROCHLORIDE], for which the concentration giving a half-maximal response (EC50) in [12] is 5.99 µM (active); in assay [17] it was 5.62 µM (active); in [13], 5.85 µM (active). For the same compound, in [18], the AC50 was 4.94 µM (active).
